Data taken from US6451791B1, “Amidoaromatic ring sulfonamide hydroxamic acid compounds” (Monsanto Company, priority 1997, dated 2002).
Where a name gives a salt, the structure may show the parent alone.

Experiments:
hMMP-13 = target: T1, hMMP-13 (Homo sapiens, UniProt P45452); assay: In vitro metalloprotease inhibition, fluorogenic MCA peptide substrate; type: biochemical; conditions: recombinant human enzyme, APMA activated, room temperature, pH 7.5
T1 construct: made in house
Experimental: (§1) The compounds prepared in the manner described in Examples 1 to 15 were assayed for activity by an in vitro assay. Following the procedures of Knight et al., FEBS Lett. 296(3):263 (1992). Briefly, 4-aminophenylmercuric acetate (APMA) or trypsin activated MMPs were incubated with various concentrations of the inhibitor compound at room temperature for 5 minutes.
(§2) More specifically, recombinant human MMP-13 and MMP-1 enzymes were prepared in laboratories of the assignee. MMP-13 was expressed in baculovirus as a proenzyme, and purified first over a heparin agarose column and then over a chelating zinc chloride column. The proenzyme was activated by APMA for use in the assay. MMP-1 expressed in transfected HT-1080 cells was provided by Dr. Howard Welgus of Washington University, St. Louis, Mo. The enzyme was also activated using APMA and was then purified over a hydroxamic acid column.
(§3) The enzyme substrate is a methoxycoumarin-containing polypeptide having the following sequence:
(§4) MCA-ProLeuGlyLeuDpaAlaArgNH^2, wherein MCA is methoxycoumarin and Dpa is 3-(2,4-dinitrophenyl)-L-2,3-diaminopropionyl alanine. This substrate is commercially available from Baychem as product M-1895.
(§5) The buffer used for assays contained 100 mM Tris-HCl, 100 mM NaCl, 10 mM CaCl2 and 0.05 percent polyethyleneglycol (23) lauryl ether at a pH value of 7.5. Assays were carried out at room temperature, and dimethyl sulfoxide (DMSO) at a final concentration of 1 percent was used to dissolve inhibitor compound.
(§6) The assayed inhibitor compound in DMSO/buffer solution was compared to an equal amount of DMSO/buffer with no inhibitor as control using Microfluor™ White Plates (Dynatech). The inhibitor or control solution was maintained in the plate for 10 minutes and the substrate was added to provide a final concentration of 4 μM.
(§7) In the absence of inhibitor activity, a fluorogenic peptide was cleaved at the gly-leu peptide bond, separating the highly fluorogenic peptide from a 2,4-dinitrophenyl quencher, resulting in an increase of fluorescence intensity (excitation at 328 nm/emission at 415 nm). Inhibition was measured as a reduction in fluorescent intensity as a function of inhibitor concentration, using a Perkin Elmer L550 plate reader. The IC50 values were calculated from those values. The results are set forth in the Inhibition Table below as Table 9, reported in terms of IC50.

hMMP-1 = target: T2, hMMP-1 (Homo sapiens, UniProt P03956); assay: as above; type: biochemical; conditions: recombinant human enzyme, APMA activated, room temperature, pH 7.5
T2 construct: made in house; host or cells: transfected HT-1080 cells (provided by Dr. Howard Welgus, Washington University)
T2 sequence (P03956 100-469): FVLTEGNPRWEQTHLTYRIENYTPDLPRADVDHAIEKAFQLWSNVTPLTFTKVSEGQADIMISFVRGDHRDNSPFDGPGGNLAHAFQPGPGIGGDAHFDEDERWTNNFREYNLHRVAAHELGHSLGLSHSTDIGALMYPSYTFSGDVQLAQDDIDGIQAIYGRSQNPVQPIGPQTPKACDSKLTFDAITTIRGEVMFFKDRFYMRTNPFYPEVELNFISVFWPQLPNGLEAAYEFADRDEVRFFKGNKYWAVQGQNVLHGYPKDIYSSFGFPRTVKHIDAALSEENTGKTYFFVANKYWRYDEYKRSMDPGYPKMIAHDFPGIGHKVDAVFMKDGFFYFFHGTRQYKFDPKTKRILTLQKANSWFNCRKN
Experimental: as §1, §2, §3, §4, §5, §6, §7

hMMP-2 = target: T3, hMMP-2 (Homo sapiens, UniProt P08253); assay: as above; type: biochemical; conditions: room temperature, pH 7.5
T3 sequence (P08253 110-660): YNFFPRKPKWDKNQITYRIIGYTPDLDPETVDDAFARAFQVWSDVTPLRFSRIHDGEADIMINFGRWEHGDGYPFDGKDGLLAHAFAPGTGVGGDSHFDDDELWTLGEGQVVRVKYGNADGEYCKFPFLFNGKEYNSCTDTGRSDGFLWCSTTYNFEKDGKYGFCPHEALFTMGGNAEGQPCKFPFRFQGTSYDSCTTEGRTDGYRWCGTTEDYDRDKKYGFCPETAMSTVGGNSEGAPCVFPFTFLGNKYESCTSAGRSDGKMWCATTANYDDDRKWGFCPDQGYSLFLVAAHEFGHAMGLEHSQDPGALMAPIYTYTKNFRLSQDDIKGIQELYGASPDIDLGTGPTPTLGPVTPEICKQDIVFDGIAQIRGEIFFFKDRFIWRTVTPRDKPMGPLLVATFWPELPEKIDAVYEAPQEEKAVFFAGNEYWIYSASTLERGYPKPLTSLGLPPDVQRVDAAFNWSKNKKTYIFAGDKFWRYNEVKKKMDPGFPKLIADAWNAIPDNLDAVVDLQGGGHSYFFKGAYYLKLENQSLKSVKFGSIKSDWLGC
Experimental: as §1, §3, §4, §5, §6, §7

hMMP-9 = hMMP-9 (Homo sapiens, UniProt P14780); assay: as above; type: biochemical; conditions: room temperature, pH 7.5
Experimental: as §1, §3, §4, §5, §6, §7

hMMP-8 = hMMP-8 (Homo sapiens, UniProt P22894); assay: as above; type: biochemical; conditions: room temperature, pH 7.5
Experimental: as §1, §3, §4, §5, §6, §7

hMMP-3 = hMMP-3 (Homo sapiens, UniProt P08254); assay: as above; type: biochemical; conditions: room temperature, pH 7.5
Experimental: as §1, §3, §4, §5, §6, §7

[1] = system: advanced, rapidly progressive, treatment-refractory solid tumor cancers; conditions: cited from earlier work

Sequence of hMMP-8 (P22894 101-467): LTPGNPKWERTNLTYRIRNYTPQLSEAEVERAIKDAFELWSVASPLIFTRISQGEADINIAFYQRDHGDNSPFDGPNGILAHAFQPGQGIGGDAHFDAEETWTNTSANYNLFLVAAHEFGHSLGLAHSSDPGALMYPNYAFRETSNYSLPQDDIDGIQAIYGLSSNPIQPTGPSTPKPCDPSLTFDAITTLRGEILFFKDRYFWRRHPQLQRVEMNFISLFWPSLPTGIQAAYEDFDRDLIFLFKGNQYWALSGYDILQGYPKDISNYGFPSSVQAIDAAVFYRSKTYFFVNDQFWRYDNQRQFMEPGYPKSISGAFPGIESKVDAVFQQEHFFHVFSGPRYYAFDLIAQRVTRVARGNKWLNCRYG
Sequence of hMMP-9 (P14780 107-707 limits assumed): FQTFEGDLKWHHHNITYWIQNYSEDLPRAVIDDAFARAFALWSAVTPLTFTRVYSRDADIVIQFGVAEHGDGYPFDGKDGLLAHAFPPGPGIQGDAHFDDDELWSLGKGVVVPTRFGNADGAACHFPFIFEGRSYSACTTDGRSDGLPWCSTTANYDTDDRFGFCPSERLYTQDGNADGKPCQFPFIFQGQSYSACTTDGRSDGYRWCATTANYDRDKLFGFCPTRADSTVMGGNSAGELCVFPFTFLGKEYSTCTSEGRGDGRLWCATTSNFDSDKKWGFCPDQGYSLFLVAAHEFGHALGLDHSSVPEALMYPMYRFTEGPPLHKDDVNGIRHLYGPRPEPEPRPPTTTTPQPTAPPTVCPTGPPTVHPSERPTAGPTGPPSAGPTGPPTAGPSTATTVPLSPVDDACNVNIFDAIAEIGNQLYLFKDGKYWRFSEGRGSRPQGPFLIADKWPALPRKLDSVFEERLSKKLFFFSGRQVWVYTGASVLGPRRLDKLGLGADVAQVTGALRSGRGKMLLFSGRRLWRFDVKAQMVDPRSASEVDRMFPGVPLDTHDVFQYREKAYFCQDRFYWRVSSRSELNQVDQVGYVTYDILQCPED
Sequence of hMMP-3 (P08254 100-477): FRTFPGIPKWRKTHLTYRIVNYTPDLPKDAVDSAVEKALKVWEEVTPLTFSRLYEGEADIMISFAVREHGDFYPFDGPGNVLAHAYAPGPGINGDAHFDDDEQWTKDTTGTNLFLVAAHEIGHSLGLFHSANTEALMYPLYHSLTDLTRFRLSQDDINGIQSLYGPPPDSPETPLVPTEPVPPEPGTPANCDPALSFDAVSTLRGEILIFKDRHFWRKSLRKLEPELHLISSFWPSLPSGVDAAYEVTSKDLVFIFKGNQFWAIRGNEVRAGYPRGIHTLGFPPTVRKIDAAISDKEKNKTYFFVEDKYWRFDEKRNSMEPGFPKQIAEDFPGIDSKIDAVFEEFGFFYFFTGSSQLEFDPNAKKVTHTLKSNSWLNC

Structure (SMILES)	IC50 (hMMP-13)	IC50 (hMMP-1)	IC50 (hMMP-2)	IC50 (hMMP-9)	IC50 (hMMP-8)	IC50 (hMMP-3)	most common drug-related toxicity ([1]; clinical trials in patients)	effect on cancer-specific antigens used as surrogate markers for biological activity ([1]; patients with colorectal, pancreatic, ovarian, prostate cancers)
CCCCCc1ccc(C(=O)Nc2ccc(S(=O)(=O)N(CCN3CCOCC3)[C@@H](C(=O)NO)C(C)C)cc2)cc1 [Example 9]	< 0.1 nM	4000 nM	< 0.1 nM	200 nM	8 nM	55 nM		
CCCCc1ccc(C(=O)Nc2ccc(S(=O)(=O)N(CCN3CCOCC3)[C@@H](C(=O)NO)C(C)C)cc2)cc1 [Example 8]	0.1 nM	4000 nM		31 nM	25.8 nM	50 nM		
CCCCCc1ccc(C(=O)Nc2ccc(S(=O)(=O)N(CCN3CCOCC3)[C@H](Cc3ccccc3)C(=O)NO)cc2)cc1 [Example 15]	< 0.1 nM	> 10000 nM	< 0.1 nM	286 nM	241 nM	140 nM		
CCCCCCc1ccc(C(=O)Nc2ccc(S(=O)(=O)N(CCN3CCOCC3)[C@@H](C(=O)NO)C(C)C)cc2)cc1 [Example 10a, (R)-4-Hexyl-N-[4-[[[1-(hydroxyamino)-carbonyl]-2-methylpropyl][2-(4-morpholinyl)ethyl]amino]sulfonyl]phenylbenzamide]			< 0.1 nM		2.6 nM	180 nM		
C[C@H](C(=O)NO)N(CCN1CCOCC1)S(=O)(=O)c1ccc(NC(=O)c2ccccc2)cc1 [Example 4]	2.5 nM	> 10000 nM		20 nM				
CC(C)[C@H](C(=O)NO)N(CCN1CCOCC1)S(=O)(=O)c1ccc(NC(=O)c2ccc(Br)cc2)cc1 [Example 13]	0.4 nM	880 nM		1.9 nM				
CC(C)[C@H](C(=O)NO)N(CCN1CCOCC1)S(=O)(=O)c1ccc(NC(=O)c2ccccc2)cc1 [Example 12]	11.4 nM	3400 nM		245 nM	12.3 nM	800 nM		
C[C@H](C(=O)NO)N(CCN1CCOCC1)S(=O)(=O)c1ccc(NC(=O)c2ccccc2)cc1 [Example 4a, (R)-N-[4-[[[2-(Hydroxyamino)-1-methyl-2-oxoethyl][2-4-morpholinyl)ethyl]amino]sulfonyl]phenyl]benzamide, Monohydrochloride]	2.2 nM			24 nM				
CNC(=O)[C@@H](NC(=O)[C@H](CC(C)C)[C@H](O)C(=O)NO)C(C)(C)C [marimastat]							musculoskeletal pain and stiffness	dose-related reduction in the rise of cancer-specific antigens
C[C@H](C(=O)NO)N(CCN1CCOCC1)S(=O)(=O)c1ccc(NC(=O)c2ccc(Br)cc2)cc1 [Example 5]	0.35 nM	4850 nM						
CCCCCc1ccc(C(=O)Nc2ccc(S(=O)(=O)N[C@H](Cc3ccccc3)C(=O)NO)cc2)cc1 [Example 14]	< 0.1 nM	> 10000 nM	< 0.1 nM	161 nM	34 nM	30 nM		
C[C@H](C(=O)NO)N(CCN1CCOCC1)S(=O)(=O)c1ccc(NC(=O)C2CCCCC2)cc1 [Example 6]	250 nM	> 10000 nM		3500 nM				
CCCCCCc1ccc(C(=O)Nc2ccc(S(=O)(=O)N(CCN3CCOCC3)[C@@H](C(=O)NO)C(C)C)cc2)cc1 [Example 10]	< 0.1 nM	5600 nM		350 nM				
CCCc1ccc(C(=O)Nc2ccc(S(=O)(=O)N(CCN3CCOCC3)[C@@H](C(=O)NO)C(C)C)cc2)cc1 [Example 7]	0.3 nM	4000 nM		4.5 nM	9 nM	90 nM		
CCCc1ccc(C(=O)Nc2ccc(S(=O)(=O)N(Cc3cccnc3)[C@@H](C(=O)NO)C(C)C)cc2)cc1 [Example 11]	0.5 nM	> 10000 nM	0.1 nM	24 nM	39 nM	225 nM		
